Where a SMILES comes first, the peptide text is derived from it. Where no end group is shown, it is not given here. [ ]: non-standard residue; d: D form. Gly(N(CH2)2(3-indolyl)) = O=C(O)CNCCc1c[nH]c2ccccc12; Gly(N-CH2CH2-imidazol-4-yl) = O=C(O)CNCCc1c[nH]cn1; Nspe = C[C@H](NCC(=O)O)c1ccccc1; Nlys = NCCCCNCC(=O)O
Tests used:
red blood cells = assay: Hemolysis assay; format: cell-based, Sprague-Dawley mouse
Description: To confirm cytotoxicity by the hemolytic activity of each peptoid synthesized in Example 1, hemolysis analysis was performed. The used blood was collected from a 13-week-old male Sprague-Dawley […] in a tube containing 158 UPS sodium heparin for preventing coagulation, and centrifuged at 4° C. for 10 minutes at 1,000 rpm. Afterward, the plasma was carefully removed, red blood cells were washed with phosphate-buffered saline (PBS: a mixed solution of 35 mM phosphate-buffered solution/150 mM NaCl, pH 7.4) three times and centrifuged at 1,000 rpm for 10 minutes. A 10% (v/v) red blood cell solution diluted in PBS was dispensed at 150 μL into a 96-well plate (microtiter plate), a peptoid solution was added at 50 μL, and 1% Triton X-100 was added. Afterward, the red blood cells were incubated at 37° C. for 1 hour, and the incubated 96-well plate was centrifuged at 1,000 rpm for 15 minutes. A supernatant was obtained and transferred to a new 96-well plate at 150 μL, and absorbance was measured using a spectrophotometer at 540 nm. Percent hemolysis may be calculated by the following Equation 1, and the corresponding results are shown in Tables 11 to 13. % Hemolysis=(A−C)/(B−C)×100 [Equation 1] In Equation 1, A is the absorbance of the peptoid solution at 540 nm, B is the absorbance of the 0.1% Triton X-100 at 540 nm, and C is the absorbance of the PBS solution at 540 nm.

E. coli ATCC25922 = settings: for antimicrobial activity (in words): E. coli and S. aureus, compared to Peptoid 1, parent peptoid or TFA salt as stated
Description: To measure the antimicrobial activity of the peptoids synthesized in Example 1, an E. coli ATCC25922 strain as gram-negative bacteria and an S. aureus KCTC25923 strain as gram-positive bacteris, were treated with the peptoids, followed by measuring the minimum inhibitory concentration (MIC). Peptoids 1 and 2 are antimicrobial peptoids known in the art, and used as controls for comparing antimicrobial activity with a novel peptoid.
Specifically, the S. aureus KCTC25923 or E. coli ATCC25922 strain was inoculated into a Mueller Hinton Broth (MHB2) liquid medium in which cations had been adjusted in the medium, cultured at 37° C. for 18 hours, subcultured, and then incubated for 4 hours. Afterward, for each bacterial strain, an optical density (OD, 0.001) was adjusted so that the bacterial count became 2×10^5 to 5×10^5 colony-forming units (CFU) per mL, which was then diluted with a MHB2 liquid medium containing 0.02% bovine serum albumin and 0.001% acetic acid, and dispensed at 100 μL into a 96-well microplate. Using sterile water, a peptoid stock 40 times stronger than a concentration to be tested was subjected to two-fold serial dilution and assessed at six different concentrations, and the maximum value of the peptoid concentrations was 25 μM. Subsequently, the plate was incubated at 37° C. for 24 hours. Afterward, optical density (OD) values at 600 nm were measured using a microplate reader (Bio-Rad).
Each MIC value was determined as the average value of a value obtained through three independent experiments.
Referring to Table 22, to measure the antimicrobial activity of the peptoids synthesized in Example 3, an MIC was measured by treating gram-negative bacteria, that is, the E. coli ATCC25922 strain, and gram-positive bacteria, that is, the S. aureus ATCC25923 strain, with the peptoids. Here, Peptoid 1 is a conventionally known antimicrobial peptoid, and Omiganan is a derivative of indolicidin, which is an antimicrobial peptide, under clinical development, and was used as a control for comparing antimicrobial activity with the novel peptoid.

Row | Compound | cytotoxicity against red blood cells / hemolysis (in words) (red blood cells) | antimicrobial activity (in words) (E. coli ATCC25922) | Hmax (100 μM) (red blood cells) | MIC E. coli ATCC25922 (E. coli ATCC25922; ATCC25922)
1 | C[C@@H](c1ccccc1)N(CC(=O)N(CCc1c[nH]cn1)CC(=O)N(CCc1c[nH]c2ccccc12)CC(=O)N(CCc1c[nH]c2ccccc12)CC(N)=O)C(=O)CN(CCCCN)C(=O)CN(CCCCN)C(=O)CN(C(=O)CN(C(=O)CN(CCCCN)C(=O)CN(C(=O)CN(C(=O)CNCCCCN)[C@@H](C)c1ccccc1)[C@@H](C)c1ccccc1)[C@@H](C)c1ccccc1)[C@@H](C)c1ccccc1 [Peptoid 77, H-NLys-Nspe-Nspe-NLys-Nspe-Nspe-NLys-NLys-Nspe-NHis-NhTrp-NhTrp-NH2] (H-[Nlys][Nspe][Nspe][Nlys][Nspe][Nspe][Nlys][Nlys][Nspe][Gly(N-CH2CH2-imidazol-4-yl)][Gly(N(CH2)2(3-indolyl))][Gly(N(CH2)2(3-indolyl))]-NH2) | improved toxicity | reduced antimicrobial activity | – | –
2 | C[C@@H](c1ccccc1)N(CC(N)=O)C(=O)CN(CCCCN)C(=O)CN(CCCCN)C(=O)CN(C(=O)CN(C(=O)CN(CCc1c[nH]cn1)C(=O)CN(C(=O)CN(C(=O)CN(CCCCN)C(=O)CN(CCc1c[nH]c2ccccc12)C(=O)CN(CCc1c[nH]c2ccccc12)C(=O)CNCCCCN)[C@@H](C)c1ccccc1)[C@@H](C)c1ccccc1)[C@@H](C)c1ccccc1)[C@@H](C)c1ccccc1 [Peptoid 74, H-NLys-NhTrp-NhTrp-NLys-Nspe-Nspe-NHis-Nspe-Nspe-NLys-NLys-Nspe-NH2] (H-[Nlys][Gly(N(CH2)2(3-indolyl))][Gly(N(CH2)2(3-indolyl))][Nlys][Nspe][Nspe][Gly(N-CH2CH2-imidazol-4-yl)][Nspe][Nspe][Nlys][Nlys][Nspe]-NH2) | improved in toxicity | retained antimicrobial activity | – | –
3 | C[C@@H](c1ccccc1)N(CC(=O)N(CCCCN)CC(=O)N(CCc1c[nH]c2ccccc12)CC(=O)N(CCc1c[nH]c2ccccc12)CC(N)=O)C(=O)CN(CCCCN)C(=O)CN(CCCCN)C(=O)CN(C(=O)CN(C(=O)CN(CCc1c[nH]cn1)C(=O)CN(C(=O)CN(C(=O)CNCCCCN)[C@@H](C)c1ccccc1)[C@@H](C)c1ccccc1)[C@@H](C)c1ccccc1)[C@@H](C)c1ccccc1 [Peptoid 80, H-NLys-Nspe-Nspe-NHis-Nspe-Nspe-NLys-NLys-Nspe-NLys-NhTrp-NhTrp-NH2] (H-[Nlys][Nspe][Nspe][Gly(N-CH2CH2-imidazol-4-yl)][Nspe][Nspe][Nlys][Nlys][Nspe][Nlys][Gly(N(CH2)2(3-indolyl))][Gly(N(CH2)2(3-indolyl))]-NH2) | improved toxicity | reduced antimicrobial activity | – | –
4 | C[C@@H](c1ccccc1)N(CC(N)=O)C(=O)CN(CCc1c[nH]cn1)C(=O)CN(CCCCN)C(=O)CN(C(=O)CN(C(=O)CN(CCCCN)C(=O)CN(C(=O)CN(C(=O)CN(CCCCN)C(=O)CN(CCc1c[nH]c2ccccc12)C(=O)CN(CCc1c[nH]c2ccccc12)C(=O)CNCCCCN)[C@@H](C)c1ccccc1)[C@@H](C)c1ccccc1)[C@@H](C)c1ccccc1)[C@@H](C)c1ccccc1 [Peptoid 76, H-NLys-NhTrp-NhTrp-NLys-Nspe-Nspe-NLys-Nspe-Nspe-NLys-NHis-Nspe-NH2] (H-[Nlys][Gly(N(CH2)2(3-indolyl))][Gly(N(CH2)2(3-indolyl))][Nlys][Nspe][Nspe][Nlys][Nspe][Nspe][Nlys][Gly(N-CH2CH2-imidazol-4-yl)][Nspe]-NH2) | improved in toxicity | retained antimicrobial activity | – | –
5 | C[C@@H](c1ccccc1)N(CC(N)=O)C(=O)CN(CCCCN)C(=O)CN(CCCCN)C(=O)CN(C(=O)CN(C(=O)CN(CCCCN)C(=O)CN(C(=O)CN(C(=O)CN(CCc1c[nH]cn1)C(=O)CN(CCc1c[nH]c2ccccc12)C(=O)CN(CCc1c[nH]c2ccccc12)C(=O)CNCCCCN)[C@@H](C)c1ccccc1)[C@@H](C)c1ccccc1)[C@@H](C)c1ccccc1)[C@@H](C)c1ccccc1 [Peptoid 73, H-NLys-NhTrp-NhTrp-NHis-Nspe-Nspe-NLys-Nspe-Nspe-NLys-NLys-Nspe-NH2] (H-[Nlys][Gly(N(CH2)2(3-indolyl))][Gly(N(CH2)2(3-indolyl))][Gly(N-CH2CH2-imidazol-4-yl)][Nspe][Nspe][Nlys][Nspe][Nspe][Nlys][Nlys][Nspe]-NH2) | improved in toxicity | retained antimicrobial activity | – | –
6 | C[C@@H](c1ccccc1)N(CC(N)=O)C(=O)CN(CCCCN)C(=O)CN(CCCCN)C(=O)CN(C(=O)CN(C(=O)CN(CCCCN)C(=O)CN(C(=O)CN(C(=O)CN(CCCCN)C(=O)CN(CCc1c[nH]c2ccccc12)C(=O)CN(CCc1c[nH]c2ccccc12)C(=O)CNCCc1c[nH]cn1)[C@@H](C)c1ccccc1)[C@@H](C)c1ccccc1)[C@@H](C)c1ccccc1)[C@@H](C)c1ccccc1 [Peptoid 72, H-NHis-NhTrp-NhTrp-NLys-Nspe-Nspe-NLys-Nspe-Nspe-NLys-NLys-Nspe-NH2] (H-[Gly(N-CH2CH2-imidazol-4-yl)][Gly(N(CH2)2(3-indolyl))][Gly(N(CH2)2(3-indolyl))][Nlys][Nspe][Nspe][Nlys][Nspe][Nspe][Nlys][Nlys][Nspe]-NH2) | improved in toxicity | retained antimicrobial activity | – | –
7 | C[C@@H](c1ccccc1)N(CC(=O)N(CCCCN)CC(=O)N(CCc1c[nH]c2ccccc12)CC(=O)N(CCc1c[nH]c2ccccc12)CC(N)=O)C(=O)CN(CCCCN)C(=O)CN(CCc1c[nH]cn1)C(=O)CN(C(=O)CN(C(=O)CN(CCCCN)C(=O)CN(C(=O)CN(C(=O)CNCCCCN)[C@@H](C)c1ccccc1)[C@@H](C)c1ccccc1)[C@@H](C)c1ccccc1)[C@@H](C)c1ccccc1 [Peptoid 79, H-NLys-Nspe-Nspe-NLys-Nspe-Nspe-NHis-NLys-Nspe-NLys-NhTrp-NhTrp-NH2] (H-[Nlys][Nspe][Nspe][Nlys][Nspe][Nspe][Gly(N-CH2CH2-imidazol-4-yl)][Nlys][Nspe][Nlys][Gly(N(CH2)2(3-indolyl))][Gly(N(CH2)2(3-indolyl))]-NH2) | improved in toxicity | retained antimicrobial activity | – | –
8 | ILRWPWWPWRRK-NH2 [Omiganan, reference compound] | – | – | 0 | 12.5~25 μM
9 | C[C@@H](c1ccccc1)N(CC(=O)N(CCCCN)CC(=O)N(CCc1c[nH]c2ccccc12)CC(=O)N(CCc1c[nH]c2ccccc12)CC(N)=O)C(=O)CN(CCCCN)C(=O)CN(CCCCN)C(=O)CN(C(=O)CN(C(=O)CN(CCCCN)C(=O)CN(C(=O)CN(C(=O)CNCCc1c[nH]cn1)[C@@H](C)c1ccccc1)[C@@H](C)c1ccccc1)[C@@H](C)c1ccccc1)[C@@H](C)c1ccccc1 [Peptoid 81, H-NHis-Nspe-Nspe-NLys-Nspe-Nspe-NLys-NLys-Nspe-NLys-NhTrp-NhTrp-NH2] (H-[Gly(N-CH2CH2-imidazol-4-yl)][Nspe][Nspe][Nlys][Nspe][Nspe][Nlys][Nlys][Nspe][Nlys][Gly(N(CH2)2(3-indolyl))][Gly(N(CH2)2(3-indolyl))]-NH2) | improved in toxicity | retained antimicrobial activity | – | –
